Read-outs that look alike come from different tables or passages of the source. Each block holds one compound with its values, some of them ahead of it. Where a SMILES comes first, the peptide text is derived from it. Bridges are numbered along the chain shown (N, C = ends).
Tests used:
[1] = tested on: Drosophila; type: in vivo; conditions: Actin-GAL4 and UAS-dUSP30^RNAi control groups, paraquat 10 mM, 96 hours
Protocol: Ten adult 1-day old males per vial were fed a solution containing 5% sucrose only (in water) or 5% sucrose+10 mM paraquat (in water) on saturated Whatman paper. The number of live flies was counted at described intervals.
To test whether USP30 knockdown has an effect on organism survival, we monitored the percentage of live flies over prolonged treatment with paraquat (10 mM, 96 hours). […] Only <15% of flies treated with paraquat were alive in Actin-GAL4 and UAS-dUSP30^RNAi control groups at 96 hours whereas ˜45% of flies were alive in the Actin-GAL4>UAS-dUSP30^RNAi (‘whole body dUSP30 knockdown’) group (FIG. 12G). We confirmed that the benefit of USP30 knockdown was not due to differences in exposure to paraquat since all three fly lines ingested roughly equal amounts of paraquat as measured by LC-MS/MS (average mass of paraquat per fly: UAS-dUSP30^RNAi: 3.2 μg, Actin-GAL4: 2.7 μg, Actin-GAL4>UAS-dUSP30R^RNAi: 2.7 μg). […] Remarkably, USP30 knockdown specifically in Ddc neurons was sufficient to provide significant survival benefit, albeit less than the whole body USP30 knockdown (FIG. 12H).

[2] = tested on: Drosophila; experiment: dopamine levels in fly heads by ELISA; type: in vivo; conditions: control fly lines, paraquat 10 mM, 48 hours
Excerpt: To examine the effect of suppressing USP30 in neurons that are relevant to PD, we used dopamine decarboxylase (Ddc)-GAL439 to drive dUSP30^RNAi specifically in aminergic neurons of the fly nervous system. As a model of mitochondrial damage and PD, we treated flies with paraquat, a mitochondrial toxin linked to PD (Castello et al., J. Biol. Chem., 282: 14186-14193 (2007); Cocheme et al., J. Biol. Chem., 283: 1786-1798 (2008); Tanner et al., Environmental Health Perspect., 119: 866-872 (2011)). […] This climbing defect was fully rescued by additional treatment with L-DOPA (FIG. 17D), showing that this behavioral deficit is likely due to depletion of dopamine. Consistently, in control fly lines (Ddc-GAL4 or UAS-dUSP30^RNAi transgenics alone), paraquat treatment (10 mM, 48 hours) caused a 30-60% reduction in dopamine levels in fly heads without altering serotonin neurotransmitter levels (indicating specific toxicity of paraquat on the dopaminergic system in this model—FIG. 12F and FIG. 17E).

[3] = type: in vivo, Drosophila; conditions: 10 mM, 48 hours
Protocol: 1-day old adult males were fed a solution containing 5% sucrose only (in water) or 5% sucrose+10 mM paraquat (in water) on saturated Whatman paper. After 48 hours of treatment, 15 flies were collected per condition and homogenized in 100 μL water. Standard curve samples were generated by spiking appropriate amounts of paraquat to homogenates from untreated flies. Then the samples were vortex mixed, 200 μL of acetonitrile containing internal standard (Propranolol) was added. The samples were vortexed again and centrifuged at 10,000×g for 10 min. Supernatants were transferred to a new plate that contained 200 μL of water and analyzed by LC-MS/MS to quantify for concentrations of paraquat. The LC-MS/MS consisted of an Agilent 1100 series HPLC system (Santa Clara, Calif.) and an HTS PAL autosampler from CTC Analytics (Carrboro, N.C.) coupled with a 4000 Q TRAP® MS and TurbolonSpray® ion source from Applied Biosystems (Foster City, Calif.). HPLC separation was performed on a Waters Atlantis dC18 column (3 μm 100×2.1 mm) with a Krud Katcher guard column from Phenomenex. Quantitation was carried out using the multiple reaction monitoring (MRM) with transition 185.1→165.1 for paraquat and 260.2→183.1 for propranolol. The lower and upper limit of the assay is 10 μM and 1000 μM, respectively. The quatitation of the assay employed a calibration curve which was constructed through plotting the analyte/IS peak area ration versus the nominal concentration of paraquat with a weighed 1/x^2 linear regression.
To test whether USP30 knockdown has an effect on organism survival, we monitored the percentage of live flies over prolonged treatment with paraquat (10 mM, 96 hours). […] We confirmed that the benefit of USP30 knockdown was not due to differences in exposure to paraquat since all three fly lines ingested roughly equal amounts of paraquat as measured by LC-MS/MS (average mass of paraquat per fly: UAS-dUSP30^RNAi: 3.2 μg, Actin-GAL4: 2.7 μg, Actin-GAL4>UAS-dUSP30R^RNAi: 2.7 μg). […]

[4] = tested on: cultured hippocampal neurons; experiment: mt-Keima mitophagy index imaging in hippocampal neurons; type: cell-based, rat; conditions: relative to luciferase shRNA
Protocol: Dissociated hippocampal neuron cultures were prepared as described (Seeburg et al., Neuron 58: 571-583 (2008)) and transfected using Lipofectamine LTX PLUS at DIV 8-10. Constructs were expressed for 1-3 days for overexpression experiments and 3-4 days for knockdown experiments. mt-Keima-transfected neurons were imaged with a Leica TCS SP5 Laser Scanning Confocal microscope with a 40×/1.25 oil objective (0.07 μm/pixel resolution, […] confocal z-step size). Cells were kept in a humidified chamber maintained at 37° C./5% CO2 during imaging. Two images were acquired using a hybrid detector in sequential mode with 458 nm (neutral pH signal) and 543 nm (acidic pH signal) laser excitation, and emission fluorescence collected between 630-710 nm. All image quantification was performed by custom-written macros in ImageJ. For mt-Keima quantification, cell bodies were manually outlined and total area of high ratio (543 nm/458 nm) lysosomal signal was divided by the total area of somatic mitochondrial signal (mitophagy index).
To measure mitophagy in neurons, mt-Keima, a ratiometric pH-sensitive fluorescent protein that is targeted into the mitochondrial matrix, was monitored. A low ratio mt-Keima-derived fluorescence (543 nm/458 nm) reports neutral environment whereas a high ratio fluorescence reports acidic pH (Katayama et al., Chemistry & Biology 18: 1042-1094 (2011)). […]

[5] = tested on: USP30; experiment: immunoblot of endogenous USP30 in neuronal cultures; type: cell-based, rat
Excerpt: Adeno-associated virus type2 (AAV2) particles expressing Parkin, PINK1 and USP30 shRNAs were produced by Vector Biolabs, Inc. from pAAV-BASIC-CAGeGFP-WPRE vector containing the HI promoter and shRNA expression cassette of the pSuper vectors.
To test the function of endogenous USP30, USP30 was knocked down using shRNAs. In heterologous cells, rat USP30 shRNA plasmid specifically eliminated the expression of transfected rat USP30 cDNA (FIG. 5B). The same rat USP30 shRNA led to a ˜85% reduction in endogenous USP30 in neuronal cultures (FIG. 5C). In neurons, USP30 knockdown increased the lysosomal delivery of mt-Keima (˜60% increase in mitophagy index), relative to negative control luciferase shRNA (FIG. 5D, F).

[6] = tested on: hippocampal neurons; experiment: mito-roGFP relative oxidation index imaging; type: cell-based, rat; conditions: 0 = after DTT, 1 = after aldrithiol; luciferase shRNA control ~0.6
Excerpt: Whether USP30 knockdown provides functional benefit to mitochondria and cells was examined next. ROS—which largely derive from mitochondria—is associated with neurodegenerative disorders and mitochondria dysfunction may contribute to increased oxidative stress in PD (Lee et al., Biochem. J, 441: 523-540 (2012)). To measure oxidative stress in mitochondria, mitochondria matrix-targeted ro-GFP (mito-roGFP), a redox-sensitive fluorescent protein that allows quantitative ratiometric imaging of mitochondrial redox potential was used (Dooley et al., J. Biol. Chem. 279: 22284-22293 (2004)).

[7] = tested on: Drosophila; experiment: climbing assay with paraquat; type: in vivo; conditions: control flies, paraquat 10 mM 48 hours, L-DOPA 1 mM 48 hours
Protocol: Climbing assays were performed using the following Drosophila lines: y, w; Actin5C-GAL4/CyO, y+ (Actin only); y, w; UAS-CG3016-RNAi/CyO, y+ (RNAi only); y, w; UAS-CG3016^RNAi, Actin5C-GAL4/CyO, y+ (USP30 knockdown).
1-day old adult males were fed a solution containing 5% sucrose only (in water) or 5% sucrose+10 mM paraquat (in water) on saturated Whatman paper. After 48 hours of treatment, flies were anesthetized using carbon dioxide and transferred in groups of ten to vials containing only 1% agarose for a 1-hour recovery period from the effects of carbon dioxide. The flies were then transferred into a new glass tube, gently tapped to the bottom and scored for their ability to climb. The number of flies climbing vertically >15 cm in 30 seconds was recorded.
To examine the effect of suppressing USP30 in neurons that are relevant to PD, we used dopamine decarboxylase (Ddc)-GAL439 to drive dUSP30^RNAi specifically in aminergic neurons of the fly nervous system. As a model of mitochondrial damage and PD, we treated flies with paraquat, a mitochondrial toxin linked to PD (Castello et al., J. Biol. Chem., 282: 14186-14193 (2007); Cocheme et al., J. Biol. Chem., 283: 1786-1798 (2008); Tanner et al., Environmental Health Perspect., 119: 866-872 (2011)). […]

[8] = molecular target: T1, USP30_cd (USP30 catalytic domain with C77A mutation) (Homo sapiens, UniProt Q70CQ3, C77A); experiment: spot phage ELISA against biotinylated USP30_cd; type: binding; conditions: USP30_cd on NeutrAvidin plate versus NeutrAvidin plate alone
T1 construct: biotinylated USP30_cd (USP30 catalytic domain with C77A mutation); biotin (biotinylated)
T1 sequence (Q70CQ3 68-502 C77A limits assumed): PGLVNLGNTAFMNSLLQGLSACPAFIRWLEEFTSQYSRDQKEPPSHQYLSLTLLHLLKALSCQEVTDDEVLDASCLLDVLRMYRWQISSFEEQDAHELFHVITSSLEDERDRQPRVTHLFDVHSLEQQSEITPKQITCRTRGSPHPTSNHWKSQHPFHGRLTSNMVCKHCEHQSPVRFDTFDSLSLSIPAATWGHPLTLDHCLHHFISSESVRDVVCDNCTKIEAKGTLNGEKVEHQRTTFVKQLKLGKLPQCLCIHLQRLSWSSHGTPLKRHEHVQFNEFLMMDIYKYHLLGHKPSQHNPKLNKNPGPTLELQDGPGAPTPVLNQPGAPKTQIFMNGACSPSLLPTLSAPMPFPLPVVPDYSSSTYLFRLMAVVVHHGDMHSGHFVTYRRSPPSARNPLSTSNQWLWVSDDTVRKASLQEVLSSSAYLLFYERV
Excerpt: The selection identified peptide USP30_3 and USP30_8, which had moderate spot ELISA signals (signal/noise ratios of ˜5). USP_30 and USP_8 have the sequences:
Peptide USP30_3 was selected for affinity maturation. To improve the affinity, a soft randomized library was constructed using the USP30_3 sequence as the targeted parent, and panned against USP30_cd in solution as described previously (Stanger, et al., 2012, Nat. Chem. Bio., 7: 655-660). After four rounds of solution panning, 20 peptides were identified that bound to USP30 catalytic domain with stronger spot phage ELISA signal than the parent USP30_3, manifested by an improvement in the signal/noise ratio of about 3-6 fold.
The sequences for certain affinity matured peptides are shown below the graph, along with the signal to noise ratio (“S/N”), which is the ratio of the spot phage ELISA signal (“signal”) detected against biotinylated USP30 cd captured on NeutrAvidin-coated 384 well Maxisorb plates versus the ELISA signal against the NeutrAvidin-coated plate alone. […] All of the affinity matured peptides shown had signal to noise ratios of greater than 10 except for USP30_3.27 and USP30_3.62.

Compound: C[n+]1ccc(-c2cc[n+](C)cc2)cc1 [paraquat, paraquat dichloride]
flies alive [1]: < 15%
reduction in dopamine levels in fly heads [2]: 30-60%
average mass of paraquat per fly ([3]; Actin-GAL4>UAS-dUSP30^RNAi flies): 2.7 µg
average mass of paraquat per fly ([3]; Actin-GAL4 flies): 2.7 µg
average mass of paraquat per fly ([3]; UAS-dUSP30^RNAi flies): 3.2 µg

Compound: CCAGAGCCCTGTTCGGTTT ((CCAGAGCCCTGTTCGGTTT; as printed in the source, key not given here) [rat USP30 shRNA]
increase in mitophagy index [4]: ~60%
reduction in endogenous USP30 [5]: ~85%
relative oxidation index [6]: ~0.4

Compound: N[C@@H](Cc1ccc(O)c(O)c1)C(=O)O [L-DOPA]
rescue of paraquat-induced climbing defect [7]: fully rescued

spot ELISA signal/noise ratio [8]: ~5
Compound: CC(C)C[C@H](NC(=O)[C@@H]1CCCN1)C(=O)N[C@@H](Cc1ccc(O)cc1)C(=O)N[C@H]1CSSC[C@@H](C(=O)N[C@@H](Cc2ccccc2)C(=O)N[C@@H](Cc2ccc(O)cc2)C(=O)O)NC(=O)[C@H](CC(C)C)NC(=O)[C@H](Cc2ccc(O)cc2)NC(=O)CNC(=O)[C@H](Cc2ccc(O)cc2)NC(=O)[C@H]([C@@H](C)O)NC(=O)[C@H](CC(C)C)NC(=O)[C@H](CC(=O)O)NC(=O)[C@H](Cc2ccc(O)cc2)NC(=O)[C@H](Cc2ccccc2)NC1=O [USP30_3, PLYCFYDLTYGYLCFY] (H-PLYCFYDLTYGYLCFY-OH; disulfide 4-14; N-terminus and C-terminus assumed)

Source: US20200172911A1, “USP30 INHIBITORS AND METHODS OF USE” (Genentech, Inc., priority 2012, published 2020)
